The values that follow are results of earlier work, collected in EP0409862B1, “TOPICAL PREPARATIONS” (Seton Healthcare Group plc, priority 1988, dated 1989).

SMILES strings stand for the structures.

For `COC1=CC(=O)C[C@@H](C)[C@]12Oc1c(Cl)c(OC)cc(OC)c1C2=O` [Griseofulvin], the “solubility in various organic liquids such as alcohols” value is recorded as “soluble”. Moreover, the solubility in water result (fine powder) is “essentially insoluble”.
